Reference: ChEMBL document CHEMBL4184155, “Resveratrol analogues like piceatannol are potent antioxidants as quantitatively demonstrated through the high scavenging ability against reactive oxygen species and methyl radical” (Bioorg Med Chem Lett, 2017)

Key:
Type in all cases: functional
[1] = Antioxidant activity assessed as relative scavenging rate constant for photolysis-induced super-oxide anion scavenging activity by measuring Kaox/Kst ratio using CYPMPO spin trap by ESR spectroscopic method
[2] = Antioxidant activity assessed as Trolox equivalents of photolysis-induced singlet oxygen scavenging activity using 4-HO-TEMP spin trap by ESR spectroscopic method
[3] = Antioxidant activity assessed as Trolox equivalents of photolysis-induced hydroxyl radical scavenging activity using DMPO spin trap by ESR spectroscopic method
[4] = Antioxidant activity assessed as Trolox equivalents of photolysis-induced methyl radical scavenging activity using DMPO spin trap by ESR spectroscopic method
[5] = Antioxidant activity assessed as Trolox equivalents of photolysis-induced alkoxyl scavenging activity using DMPO spin trap by ESR spectroscopic method
[6] = Antioxidant activity assessed as relative scavenging rate constant for photolysis-induced alkoxyl scavenging activity by measuring Kaox/Kst ratio using DMPO spin trap by ESR spectroscopic method
[7] = Antioxidant activity assessed as relative scavenging rate constant for photolysis-induced methyl radical scavenging activity by measuring Kaox/Kst ratio using DMPO spin trap by ESR spectroscopic method
[8] = Antioxidant activity assessed as relative scavenging rate constant for photolysis-induced peroxyl scavenging activity by measuring Kaox/Kst ratio using CYPMPO spin trap by ESR spectroscopic method
[9] = Antioxidant activity assessed as relative scavenging rate constant for photolysis-induced singlet oxygen scavenging activity by measuring Kaox/Kst ratio using 4-HO-TEMP spin trap by ESR spectroscopic method
[10] = Antioxidant activity assessed as rate constant for photolysis-induced methyl radical scavenging activity using DMPO spin trap by ESR spectroscopic method
[11] = Antioxidant activity assessed as relative scavenging rate constant for photolysis-induced hydroxyl radical scavenging activity by measuring Kaox/Kst ratio using DMPO spin trap by ESR spectroscopic method
[12] = Antioxidant activity assessed as Trolox equivalents of photolysis-induced superoxide anion scavenging activity using CYPMPO spin trap by ESR spectroscopic method
[13] = Antioxidant activity assessed as Trolox equivalents of photolysis-induced peroxyl scavenging activity using CYPMPO spin trap by ESR spectroscopic method
[14] = Antioxidant activity assessed as rate constant for singlet oxygen scavenging activity in methanol solution by EPR spectroscopic method
[15] = Antioxidant activity assessed as rate constant for singlet oxygen scavenging activity in aqueous solution by EPR spectroscopic method
[16] = Antioxidant activity assessed as rate constant for singlet oxygen scavenging activity in ethanol-water (1:1 v/v) mixture using phosphorescence-based single-photon-counting method

COc1ccc(/C=C/c2cc(O)cc(O)c2)cc1O
Ratio [1]: 70.5 | Activity [2]: 3.7 equiv | Activity [3]: 0.71 equiv | Activity [4]: 0.04 equiv | Activity [5]: 0.1 equiv | Ratio [6]: 11.9 | Ratio [7]: 2.21 | Ratio [8]: 21.1 | Ratio [9]: 8780 | K [10]: 3.1 ×10⁷ /M/s | Ratio [11]: 22.6 | Activity [12]: 0.84 equiv | Activity [13]: 0.71 equiv

Oc1ccc(/C=C/c2cc(O)cc(O)c2)cc1
Ratio [1]: 33.4 | Activity [2]: 3 equiv | Activity [3]: 0.5 equiv | Activity [4]: -0 equiv | Activity [5]: 0.2 equiv | Ratio [6]: 23.3 | Ratio [7]: -0 | Ratio [8]: 19.6 | Ratio [9]: 7080 | K [14]: 2.55 ×10⁷ /M/s | K [15]: 3.92 ×10⁹ /M/s | Ratio [11]: 15.8 | Activity [12]: 0.4 equiv | Activity [13]: 0.69 equiv

Oc1cc(O)cc(/C=C/c2ccc(O)cc2O)c1
Ratio [1]: 37.4 | Activity [2]: 3.4 equiv | Activity [3]: 0.68 equiv | Activity [4]: 0.08 equiv | Activity [5]: 0.17 equiv | Ratio [6]: 19 | Ratio [7]: 3.98 | Ratio [8]: 18.9 | Ratio [9]: 7960 | Ratio [11]: 21.8 | Activity [12]: 0.45 equiv | Activity [13]: 0.67 equiv

Oc1cc(O)cc(/C=C/c2ccc(O)c(O)c2)c1
Ratio [1]: 156 | Activity [2]: 7 equiv | Activity [3]: 2.78 equiv | Activity [4]: 0.11 equiv | Activity [5]: 0.36 equiv | Ratio [6]: 41.2 | Ratio [7]: 5.65 | Ratio [8]: 218 | Ratio [9]: 16600 | K [10]: 7.9 ×10⁷ /M/s | Ratio [11]: 88.8 | Activity [12]: 1.86 equiv | Activity [13]: 7.7 equiv

Cc1c(C)c2c(c(C)c1O)CCC(C)(C(=O)O)O2 (centres undefined)
Ratio [1]: 83.9 | Ratio [6]: 115 | Ratio [7]: 50 | Ratio [8]: 28.3 | Ratio [9]: 2360 | K [10]: 7 ×10⁸ /M/s | K [16]: 6.22 ×10⁷ /M/s | Ratio [11]: 31.9

COc1cc(/C=C/c2ccc(OC)c(OC)c2)cc(OC)c1
Ratio [1]: -0 | Activity [2]: 0.11 equiv | Activity [3]: 0.8 equiv | Activity [4]: -0 equiv | Activity [5]: 0.21 equiv | Ratio [6]: 24.4 | Ratio [7]: -0 | Ratio [8]: 8.52 | Ratio [9]: 268 | Ratio [11]: 25.6 | Activity [12]: -0 equiv | Activity [13]: 0.3 equiv

COc1cc(/C=C/c2ccc(O)cc2)cc(OC)c1
Ratio [1]: 35.6 | Activity [2]: 2 equiv | Activity [3]: 0.47 equiv | Activity [4]: -0 equiv | Activity [5]: 0.11 equiv | Ratio [6]: 13 | Ratio [7]: -0 | Ratio [8]: 24.8 | Ratio [9]: 4610 | Ratio [11]: 14.9 | Activity [12]: 0.42 equiv | Activity [13]: 0.88 equiv
